In general, IC50 refers to the midpoint of a concentration-inhibition curve. A high value points to a need for much substance.

The values below come from BindingDB's records for PubMed 40053382 (Sapienza University of Rome).

Assay [1] is described as follows: Inhibition of HIV-1 Reverse transcriptase K103N mutant.
Assay [2] is described as follows: Inhibition of wild type HIV-1 LAI reverse transcriptase.
A short description of assay [3]: Inhibition of HIV-1 Reverse transcriptase K103N/Y181C double mutant.
Assay [4] can be described thus: Inhibition of HIV-1 integrase strand transfer activity.
Assay [5] in a line: Inhibition of HIV-1 Reverse transcriptase L100I/K103N double mutant.

Consider `Cc1cc(/C=C/C#N)cc(C)c1Nc1ncnc(Nc2ccc(C#N)cc2)n1`, for which the results for the IC50 in assay [1], in assay [2] and in assay [3] were 0.3 nM, 0.4 nM and 1 nM, respectively.

In the case of `Cc1cc(C#N)cc(C)c1Nc1ncnc(Nc2ccc(C#N)cc2)n1`, the values for the IC50 in assay [1], in assay [2] and in assay [3] were 0.4 nM, 0.4 nM and 32 nM, respectively.

`CCc1nc(SC)n(COCc2ccccc2)c1CC1CCCCC1` displayed an IC50 in assay [4] of 400 nM.

On to `CCOCn1c(SC)nc(C(C)C)c1CC1CCCCC1`, for which half-maximal inhibition in assay [4] (IC50) required 250 nM.

Take `Cc1cc(C#N)cc(C)c1Oc1ncnc(Nc2ccc(C#N)cc2)n1`: the IC50 in assay [1] was 1.4 nM; in assay [2], 1.4 nM; in assay [5], 49 nM; in assay [3] it was 25 nM.

On to `CSc1nc(C(C)C)c(CC2CCCCC2)n1COCc1ccccc1`, for which, in assay [4], half-maximal inhibition (IC50) required 260 nM.

In turn, `CSc1nc(C(C)C)c(Cc2ccccc2)n1COCc1ccccc1` had an IC50 in assay [4] of 3300 nM.
